What follows are compounds tested against T1, human ADRA2B receptor (Homo sapiens, UniProt P18089) (assay: GTPγS agonist assay, ADRA2B receptor). Settings: read-out: GTPase - Human Alpha2B EC50.
T1 construct: expressed in transfected cells
T1 sequence (P18089 1-450): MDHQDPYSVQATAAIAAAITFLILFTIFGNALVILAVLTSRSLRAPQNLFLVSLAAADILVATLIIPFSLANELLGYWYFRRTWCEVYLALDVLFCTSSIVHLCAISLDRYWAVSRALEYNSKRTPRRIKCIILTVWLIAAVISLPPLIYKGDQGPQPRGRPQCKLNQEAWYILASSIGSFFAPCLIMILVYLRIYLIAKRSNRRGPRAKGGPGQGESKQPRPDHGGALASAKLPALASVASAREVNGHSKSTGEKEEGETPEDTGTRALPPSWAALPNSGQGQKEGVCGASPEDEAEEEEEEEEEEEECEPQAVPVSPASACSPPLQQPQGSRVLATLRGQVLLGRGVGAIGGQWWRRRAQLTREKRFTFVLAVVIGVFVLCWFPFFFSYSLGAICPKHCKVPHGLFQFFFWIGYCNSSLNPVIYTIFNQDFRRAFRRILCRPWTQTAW
Format: biochemical
Description: GTP ? S Agonist Assays (ADRA2A, ADRA2B, and ADRA2C Receptors)
Membranes were prepared for GTP ? S binding assays from CHO-K1 cells stably expressing human ADRA2A, ADRA2B, or ADRA2C receptor. Briefly, cells were grown in 5-layer cell culture flasks. Cells were washed with 50 mL of PBS and then dissociated with 0.05% trypsin. Dissociated cells were then collected by centrifugation at 650×g for 8 min at 4° C. Pellets were washed again in PBS by centrifugation and resuspended in 30 mL of 20 mM HEPES, 10 mM EDTA, pH 7.4. After sitting on ice for 30 min, membranes were collected by centrifugation at 50000×g for 15 min at 4° C., resuspended in 30 mL of 20 mM HEPES, 0.1 mM EDTA, pH 7.4 and collected again by centrifugation. Pellets were then washed twice by centrifugation in 30 mL of 20 mM HEPES, pH 7.4, and stored at −80° C. until the day of the assay. On the day of the assay, pellets were thawed on ice and resuspended in 1 mL of 20 mM HEPES, pH 7.4, 10 mM MgCl2, 100 mM NaCl using dounce homogenization. Membrane protein concentration was determined by BCA protein assay (Promega, Madison, WI) according to Promega guidelines.
On the day of the assay, serial dilutions of test compounds were brought up in assay buffer (20 mM HEPES, 10 mM MgCl2, 200 mM NaCl) at 10× final assay concentration. 50 μL/well of membrane homogenates (containing 5 μg of membrane protein for ADRA2A, ADRA2B, or 7.5 μg for ADRA2C) were prepared in assay buffer supplemented with GDP at 2× final assay concentration (5 μM GDP) and dispensed into 96 well polypropylene, U-bottom Greiner plates. Then, 10 μL of compounds were added to assay plates and incubated for 10 min at room temperature. […] The binding reaction was incubated for 1 h at 37° C. Membranes in assay reactions were then transferred to GF/C filter plates (UniFilter, Perkin Elmer) and washed three times using a FilterMate Harvester (Perkin Elmer) with cold assay buffer containing no GDP. Filter plates were then dried at 40° C. overnight followed by the addition of 30 μL/well of Beta Plate Scintillation liquid. Plates were top and bottom sealed before being read on TopCount scintillation counter (Perkin Elmer, Waltham, MA).

SMILES	EC50 [nM]
COc1nccc(CC(c2ccc(OC(F)(F)F)cc2)c2c[nH]cn2)n1 (stereo not shown) [Compound 203, 4-[2-(4-imidazolyl)-2 (p-trifluoromethoxyphenyl)ethyl]-2-methoxypyrimidine]	> 500
Cc1cccc(C(Cc2ccnn2C)c2c[nH]cn2)c1C (stereo not shown) [Compound 127, 5-[2-(4-imidazolyl)-2-(2,3-xylyl)ethyl]-1-methyl-pyrazole]	< 10
COc1cccc(C[C@@H](c2cnc[nH]2)c2cccc3c2COC3)n1 [Compound 12, 2-[(2R)-2-(1,3-dihydro-2-benzofuran-4-yl)-2-(1H-imidazol-4-yl)ethyl]-6-methoxypyridine]	> 500
Cc1nc(C)c(C[C@@H](c2c[nH]cn2)c2cccc(C)c2C)s1 [Compound 123, 5-[(R)-2-(4-imidazolyl)-2-(2,3-xylyl)ethyl]-2,4-dimethyl-1,3-thiazole]	< 10
Cc1cccc([C@@H](Cc2ccnc(C(F)(F)F)n2)c2cnc[nH]2)c1C [Compound 73, 4-[(2R)-2-(2,3-dimethylphenyl)-2-(1H-imidazol-4-yl)ethyl]-2-(trifluoromethyl) pyrimidine]	> 500
COc1cccc(CC(c2c[nH]cn2)c2cccc3c2OC(F)(F)O3)n1 (stereo not shown) [Compound 125, 2,2-difluoro-4-[1-(4-imidazolyl)-2-(6-methoxy-2-pyridyl)ethyl]-2H-1,3-benzodioxole]	10 to 50
Cc1cccc([C@H](Cc2ccccn2)c2cnc[nH]2)c1Cl [Compound 47, 2-[(2S)-2-(2-chloro-3-methylphenyl)-2-(1H-imidazol-4-yl)ethyl] pyridine]	> 500
Cc1cccc([C@H](Cc2cccnc2)c2cnc[nH]2)c1C [Compound 58, 3-[(2S)-2-(2,3-dimethylphenyl)-2-(1H-imidazol-4-yl)ethyl] pyridine]	50 to 500
Cc1nccc(CC(c2c[nH]cn2)c2cccc3c2ccn3C)n1 (stereo not shown) [Compound 164, 4-[2-(4-imidazolyl)-2 (1-methyl-4-indolyl)ethyl]-2-methylpyrimidine]	< 10
Cc1cccc(C(Cc2cscn2)c2c[nH]cn2)c1C (stereo not shown) [Compound 118, 4-[2-(4-imidazolyl)-2-(2,3-xylyl)ethyl]-1,3-thiazole]	10 to 50
COc1c(Cl)cccc1C(Cc1cccnn1)c1c[nH]cn1 (stereo not shown) [Compound 160, 3-[2-(3-chloro-2-methoxyphenyl)-2-(4-imidazolyl)ethyl] pyridazine]	> 500
FC1(F)Oc2cccc([C@@H](Cc3ccccn3)c3c[nH]cn3)c2O1 [Compound 121, 4-[(R)-1-(4-imidazolyl)-2-(2-pyridyl)ethyl]-2,2-difluoro-2H-1,3-benzodioxole]	50 to 500
Cc1cc(CC(c2c[nH]cn2)c2cccc(C)c2C)no1 (stereo not shown) [Compound 114, 3-[2-(4-imidazolyl)-2-(2,3-xylyl)ethyl]-5-methyl-isoxazole]	< 10
COc1ccc(CC(c2c[nH]cn2)c2cccc(C)c2C)nn1 (stereo not shown) [Compound 133, 3-[2-(4-imidazolyl)-2-(2,3-xylyl)ethyl]-6-methoxy-pyridazine]	10 to 50
Cc1cccc([C@H](Cc2ccccn2)c2cnc[nH]2)c1C [Compound 51, 2-[(2S)-2-(2,3-dimethylphenyl)-2-(1H-imidazol-4-yl)ethyl] pyridine]	50 to 500
COc1cccc(C[C@@H](c2cnc[nH]2)c2cccc(Cl)c2C)n1 [Compound 15, 2-[(2R)-2-(3-chloro-2-methylphenyl)-2-(1H-imidazol-4-yl)ethyl]-6-methoxypyridine]	< 10
Cc1cccc([C@@H](Cc2cccnn2)c2c[nH]cn2)c1Cl [Compound 214, 3-[(R)-2-(2-chloro-3-tolyl)-2-(4-imidazolyl)ethyl] pyridazine]	> 500

SMILES	EC50 [nM]
Cc1cccc([C@@H](Cc2cccc(C(F)(F)F)n2)c2c[nH]cn2)c1C [Compound 81, 2-[(2R)-2-(2,3-dimethylphenyl)-2-(1H-imidazol-4-yl)ethyl]-6-(trifluoromethyl) pyridine]	> 500
FC(F)(F)Oc1ccccc1[C@@H](Cc1ccccn1)c1cnc[nH]1 [Compound 30, 2-[(2R)-2-(1H-imidazol-4-yl)-2-[2-(trifluoromethoxy)phenyl]ethyl] pyridine]	> 500
COc1nccc(C[C@@H](c2cnc[nH]2)c2cccc(C)c2C)n1 [Compound 54, 4-[(2R)-2-(2,3-dimethylphenyl)-2-(1H-imidazol-4-yl)ethyl]-2-methoxy-pyrimidine]	50 to 500
Cc1cccc(C(Cc2ccccn2)c2cnc[nH]2)c1C (stereo not shown) [Compound 50, 2-[2-(2,3-dimethylphenyl)-2-(1H-imidazol-5-yl)ethyl] pyridine]	> 500
COc1cccc(C[C@H](c2cnc[nH]2)c2cccc(OC)c2C)n1 [Compound 26, 2-[(2S)-2-(1H-imidazol-4-yl)-2-(3-methoxy-2-methylphenyl)ethyl]-6-methoxypyridine]	50 to 500
Cc1cccc(C(Cc2c(C)noc2C)c2c[nH]cn2)c1C (stereo not shown) [Compound 113, 4-[2-(4-imidazolyl)-2-(2,3-xylyl)ethyl]-3,5-dimethyl-isoxazole]	50 to 500
COc1ccccc1[C@H](Cc1ccccn1)c1cnc[nH]1 [Compound 31, 2-[(2S)-2-(1H-imidazol-4-yl)-2-(2-methoxyphenyl)ethyl]pyridine]	> 500
Cc1nccc(C[C@@H](c2cnc[nH]2)c2cccc(C)c2C)n1 [Compound 71, 4-[(2R)-2-(2,3-dimethylphenyl)-2-(1H-imidazol-4-yl)ethyl]-2-methyl-pyrimidine]	> 500
COc1cccc(C[C@@H](c2c[nH]cn2)c2cccc(OC)c2Cl)n1 [Compound 110, 4-[(R)-1-(2-chloro-3-methoxyphenyl)-2-(6-methoxy-2-pyridyl)ethyl] imidazole]	< 10
Cc1cccc([C@@H](Cc2ccn(C)n2)c2c[nH]cn2)c1C [Compound 105, 3-[(R)-2-(4-imidazolyl)-2-(2,3-xylyl)ethyl]-1-methylpyrazole]	> 500
COc1ncc(C[C@@H](c2c[nH]cn2)c2cccc(Cl)c2C)cn1 [Compound 108, 5-[(R)-2-(3-chloro-2-tolyl)-2-(4-imidazolyl)ethyl]-2-methoxy-pyrimidine]	50 to 500
COc1cccc(C[C@H](c2c[nH]cn2)c2cccc(Cl)c2C)n1 [Compound 14, 2-[(2S)-2-(3-chloro-2-methylphenyl)-2-(1H-imidazol-4-yl)ethyl]-6-methoxypyridine]	50 to 500
Cc1nc(C)c(C[C@H](c2c[nH]cn2)c2cccc(C)c2C)s1 [Compound 124, 5-[(S)-2-(4-imidazolyl)-2-(2,3-xylyl)ethyl]-2,4-dimethyl-1,3-thiazole]	10 to 50
COc1nccc(CC(c2c[nH]cn2)c2cccc3c2OCCCO3)n1 (stereo not shown) [Compound 355, 4-[2-(3,4-dihydro-2H-1,5-benzodioxepin-6-yl)-2-(4-imidazolyl)ethyl]-2-methoxypyrimidine]	50 to 500
COc1c(C)cccc1[C@H](Cc1ccccn1)c1cnc[nH]1 [Compound 33, 2-[(2S)-2-(1H-imidazol-4-yl)-2-(2-methoxy-3-methylphenyl)ethyl]pyridine]	> 500
COc1nccc(CC(c2c[nH]cn2)c2cccc(C#N)c2C)n1 (stereo not shown) [Compound 171, 6-[1-(4-imidazolyl)-2-(2-methoxy-4-pyrimidinyl)ethyl]-2-toluonitrile]	50 to 500
COc1cccc(C[C@H](c2c[nH]cn2)c2cccc(OC)c2Cl)n1 [Compound 111, 4-[(S)-1-(2-chloro-3-methoxyphenyl)-2-(6-methoxy-2-pyridyl)ethyl] imidazole]	50 to 500
